Columns and labels:
BChE = target: T1, BChE (Homo sapiens, UniProt P06276); test: BChE inhibition assay and kinetic study; assay type: biochemical; conditions: for BChE Inhibition Type: determined by Dixon and Lineweaver–Burk plots; for IC50: mean ± S.D. of triplicate experiments, substrate butyrylthiocholine chloride; for Ki: obtained by Dixon plot
T1 construct: purchased Sigma-Aldrich
Method: (§1) Cholinesterases, trypsin, chymotrypsin, elastase and BACE1, assays were performed according to the previous methods. AChE, BChE, trypsin, chymotrypsin and elastase were assayed according to the manual depicted in the reference using ACh iodide, butyrylthiocholine chloride, N-benzoyl-L-Arg-pNA, N-benzoyl-L-Tyr-pNA and N-succinyl-Ala-Ala-Ala-pNA as substrates, respectively. BACE1 assay was achieved using a Rh-[…]-Quencher as a substrate. […] The inhibitory constant (Ki) was obtained by Dixon plot, and Vmax and Km were defined by Lineweaver–Burk plots. These kinetic parameters were calculated using the SigmaPlot™ (version 12.3, Systat Software, Inc., San Jose, CA, USA).

Trypsin = Trypsin inhibition assay (enzyme selectivity); assay type: biochemical; conditions: mean ± SD of triplicate
Method: as §1

Elastase = Elastase inhibition assay (enzyme selectivity); assay type: biochemical; conditions: mean ± SD of triplicate
Method: as §1

BACE1 = test system: T2, BACE1; test: BACE1 FRET assay (enzyme selectivity); assay type: biochemical; conditions: mean ± SD of triplicate
T2 construct: purchased Pan Vera
Method: A beta-site APP cleaving enzyme 1 (BACE1) fluorescence resonance energy transfer (FRET) assay kit was purchased from Pan Vera (Madison, WI, USA).
as §1

AChE = target: T3, AChE (Homo sapiens, UniProt P22303); test: biochemical; conditions: for AChE Inhibition Type: determined by Dixon and Lineweaver–Burk plots; for IC50: mean ± S.D. of triplicate experiments, substrate ACh iodide; for Ki: obtained by Dixon plot
T3 construct: purchased Sigma-Aldrich
T3 sequence (P22303 32-614): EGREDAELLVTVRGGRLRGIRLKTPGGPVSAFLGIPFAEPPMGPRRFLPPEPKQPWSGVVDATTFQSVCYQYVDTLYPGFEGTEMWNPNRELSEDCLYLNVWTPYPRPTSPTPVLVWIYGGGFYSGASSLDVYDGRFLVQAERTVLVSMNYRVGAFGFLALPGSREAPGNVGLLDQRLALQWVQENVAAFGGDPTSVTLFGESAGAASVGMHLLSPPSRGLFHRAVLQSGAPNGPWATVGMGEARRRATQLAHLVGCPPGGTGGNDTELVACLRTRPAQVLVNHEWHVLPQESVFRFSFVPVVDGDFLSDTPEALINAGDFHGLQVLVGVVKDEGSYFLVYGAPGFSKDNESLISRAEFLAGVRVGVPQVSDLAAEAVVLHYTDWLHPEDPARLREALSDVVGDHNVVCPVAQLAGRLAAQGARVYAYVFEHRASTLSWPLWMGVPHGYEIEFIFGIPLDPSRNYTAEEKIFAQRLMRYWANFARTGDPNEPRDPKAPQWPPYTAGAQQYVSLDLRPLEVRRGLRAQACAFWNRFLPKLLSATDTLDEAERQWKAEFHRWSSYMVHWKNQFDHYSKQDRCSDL
Method: as §1

Chymotrypsin = test system: T4, Chymotrypsin; test: Chymotrypsin inhibition assay (enzyme selectivity); assay type: biochemical; conditions: mean ± SD of triplicate
T4 construct: purchased Sigma-Aldrich
Method: as §1

T1 sequence (P06276 29-602): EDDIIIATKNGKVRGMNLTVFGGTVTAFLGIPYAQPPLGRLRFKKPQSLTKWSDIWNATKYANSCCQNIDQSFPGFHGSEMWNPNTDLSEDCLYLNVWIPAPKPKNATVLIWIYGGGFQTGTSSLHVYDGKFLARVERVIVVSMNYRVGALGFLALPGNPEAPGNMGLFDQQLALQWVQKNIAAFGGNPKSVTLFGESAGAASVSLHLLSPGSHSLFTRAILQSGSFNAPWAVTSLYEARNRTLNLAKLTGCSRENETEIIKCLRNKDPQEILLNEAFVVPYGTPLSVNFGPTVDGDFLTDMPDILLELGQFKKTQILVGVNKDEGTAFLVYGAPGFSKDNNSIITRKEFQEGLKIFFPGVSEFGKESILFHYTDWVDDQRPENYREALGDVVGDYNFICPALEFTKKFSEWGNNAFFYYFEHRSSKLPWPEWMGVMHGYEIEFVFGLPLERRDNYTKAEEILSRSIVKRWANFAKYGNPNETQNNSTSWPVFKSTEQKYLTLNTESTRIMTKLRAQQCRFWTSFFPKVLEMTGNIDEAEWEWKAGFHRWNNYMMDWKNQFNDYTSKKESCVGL

Compound: COc1ccc2c3c1O[C@H]1C[C@@H](O)C=C[C@@]31CCN(C)C2 [Galantamine, reference compound]
- BChE Inhibition Type (BChE): Competitive

Compound: CC(=O)OC[C@H]1O[C@@H](Oc2cccc3c2C(=O)O[C@@H](c2ccc(OC(C)=O)cc2)C3)[C@H](OC(C)=O)[C@@H](OC(C)=O)[C@@H]1OC(C)=O [HGP, hydrangenol 8-O-glucoside pentaacetate]
- Inhibitory activity (%) against Trypsin (Trypsin; compound 50 µM): 1.26 ± 3.36%
- Inhibitory activity (%) against Trypsin (Trypsin; compound 100 µM): 3.12 ± 1.69%
- Inhibitory activity (%) against Elastase (Elastase; compound 50 µM): 3.77 ± 1.66%
- Inhibitory activity (%) against Elastase (Elastase; compound 100 µM): 1.47 ± 1.31%
- Inhibitory activity (%) against BACE1 (BACE1; compound 50 µM): 20.02 ± 0.52%
- Inhibitory activity (%) against BACE1 (BACE1; compound 100 µM): 25.21 ± 1.60%
- BChE Inhibition Type (BChE): Non-competitive
- IC50 (BChE): 41 ± 3.03 µM
- Ki (BChE): 44.9 µM
- AChE Inhibition Type (AChE): Non-competitive
- IC50 (AChE): 22.7 ± 1.63 µM
- Ki (AChE): 36.1 µM
- Inhibitory activity (%) against Chymotrypsin (Chymotrypsin; compound 50 µM): 7.16 ± 3.38%
- Inhibitory activity (%) against Chymotrypsin (Chymotrypsin; compound 100 µM): 5.15 ± 3.70%

Compound: O=C1OC(c2ccc(O)cc2)Cc2cc(O)cc(O)c21 (centres unmarked) [TC, thunberginol C]
- Inhibitory activity (%) against Trypsin (Trypsin; compound 50 µM): −0.27 ± 1.51%
- Inhibitory activity (%) against Trypsin (Trypsin; compound 100 µM): 0.07 ± 2.00%
- Inhibitory activity (%) against Elastase (Elastase; compound 50 µM): 1.89 ± 1.09%
- Inhibitory activity (%) against Elastase (Elastase; compound 100 µM): 0.42 ± 0.36%
- Inhibitory activity (%) against BACE1 (BACE1; compound 50 µM): 25.81 ± 3.11%
- Inhibitory activity (%) against BACE1 (BACE1; compound 100 µM): 28.68 ± 1.87%
- BChE Inhibition Type (BChE): Non-competitive
- IC50 (BChE): 42.4 ± 3.67 µM
- Ki (BChE): 49.2 µM
- AChE Inhibition Type (AChE): Non-competitive
- IC50 (AChE): 42 ± 1.06 µM
- Ki (AChE): 45.6 µM
- Inhibitory activity (%) against Chymotrypsin (Chymotrypsin; compound 50 µM): 6.04 ± 2.42%
- Inhibitory activity (%) against Chymotrypsin (Chymotrypsin; compound 100 µM): 8.50 ± 1.40%
